How the values were obtained:
[1] = Absorption spectra (λmax, molar absorption coefficient); assay type: physicochemical; conditions: for λmax / εmax: ethanol solutions
[2] = Triplet lifetime by laser flash photolysis; assay type: physicochemical; conditions: air-saturated ethanol
Method: Absorption spectra were recorded on a Shimadzu UV-2100 spectrophotometer or with a Carry 50 Biospectrophotometer (Varian, Mulgrave, USA). Fluorescence spectra were measured with a Spex Fluorolog 3 spectrophotometer, with correction for the wavelength dependence system (RCA C31034 photomultiplier), or with a PerkinElmer LS 50 spectrofluorimeter. Transient absorption spectra were measured with an Applied Photophysics LKS 60 nanosecond laser flash photolysis kinetic spectrometer, using the third harmonic of a Spectra-Physics Quanta Ray GCR 130-01 Nd/YAG laser for excitation, a Hamamatsu 1P28 photomultiplier and a Hewlett-Packard Infinium oscilloscope (1 GS/s). Flash photolysis measurements were made in the presence of air and in argon saturated solutions. Photoacoustic calorimetry employed the same Nd/YAG laser, a home-made front-face photoacoustic cell with a 2.25 MHz Panametrics transducer (model 5676) and a Tektronix DSA 601 transient recorder. Room-temperature singlet-oxygen phosphorescence was measured at 1270 nm with a Hamamatsu R5509-42 photomultiplier, cooled to 193 K in a liquid nitrogen chamber (Products for Research model PC176TSCE005), following laser excitation of aerated solutions at 355 nm, using an adapted Applied Photophysics spectrometer. Singlet oxygen emission at 1270 nm was also monitored with a liquid nitrogen-cooled germanium detector (North Coast) coupled to a Tectronix Digitizing scope (TDS 520B), following sample excitation with 5 ns laser pulses of the third harmonic (355 nm) generated by a Q-switched Nd:YAG laser (Continuum Surelite II).
The triplet-triplet absorption spectra and the triplet lifetimes of the photosensitisers (τT) were measured with the transient absorption spectra equipment described above, with excitation at 355 nm, where the solutions had absorbances between 0.25 and 0.30.
The triplet-triplet absorption spectra of the Luzitins measured in this work were in good agreement with that in the literature data for chlorins and bacteriochlorins. All triplet decays were clearly mono-exponential. […] Such values are consistent with diffusion limited energy transfer from the triplet state of the sensitizer to molecular oxygen through a charge-transfer interaction.

[3] = Fluorescence quantum yield; assay type: physicochemical; conditions: ethanol
Method: The absorptions of both reference and sample solutions were matched at ca 0.2 at the excitation wavelength of 515.5 nm, and the solutions were diluted by a factor 10 before collecting the fluorescence. The fluorescence quantum yield was obtained from the ratio of the fluorescence bands of the sample vs the reference, multiplied by the fluorescence quantum yield of the reference, 0.012 according to [12], after correction for the difference of refractive indexes of ethanol and toluene.
This is indicative of little aggregation between the molecules, which exist mostly as monomers at these concentrations in the solvents studied. Table 1 presents typical red and infrared molar absorption coefficients (εmax) and wavelength maxima. The same table also presents representative fluorescence quantum yields (ΦF) of Luzitins. The fluorescence quantum yields decrease of these molecules decrease in the presence of chlorine substituents, a fingerprint of the heavy atom effect expected for such molecules.

[4] = n-octanol:water partition coefficient (shake-flask); assay type: physicochemical
Method: The n-octanol:water partition coefficients (CP) were measured using a minor modification of the shake-flask method described by some of us in the literature. The modification concerned the excitation of the absorption band ca 500 nm and the collection of the fluorescence in the red/IR region.

[5] = test system: CT26 (murine colon carcinoma); assay: Cell photosensitization, 748 nm diode laser, resazurin; assay type: cell-based, mouse; conditions: for concentration of sensitizer required to kill 90% of cells (LD90): 6 J/cm^2 diode laser irradiation at 28.5 mW
[6] = test system: PC-3 (human prostate carcinoma); assay: as above; assay type: cell-based; conditions: for concentration of sensitizer required to kill 90% of cells (LD90): 6 J/cm^2 diode laser irradiation at 28.5 mW
[7] = Photobleaching under 748 nm diode laser irradiation; assay type: physicochemical; conditions: for t1/2 (photobleaching half-life): 100 mW laser irradiation at 748 nm
Excerpt: The irradiation of bacteriochlorins in the photobleaching experiments employed the 748 nm Lynx diode laser. For animal studies we employed a costumer-made Hamamatsu diode laser, type LA0873. S/N M070301, which delivered 140 mW at 748 nm. This diode laser was controlled by a ThorLabs 500 mA ACC/APC Laser Diode Controller and in-house electronics. The laser energies of this and the other higher-energy lasers employed in this work were regularly checked with an Ophir model AN/2E laser power meter.
Photobleaching experiments were conducted in PBS. PBS:methanol (50:50) and methanol solutions. The solutions were irradiated in a cuvette with an optical path of 1 cm and the Lynx diode laser. The initial absorption of the solutions was ca. 0.8. The mechanism of photobleaching was assessed with the irradiation of the sensitizer using the Hamamatsu diode laser at 80 mW. The sensitizer was irradiated in PBS and in the presence of ascorbic acid or azide.
The chemical stability of the compounds was studied exposing them to light, air, and pH changes. The most significant degradation occurs for aerated solutions irradiated by light of the appropriate wavelength. In such circumstances the photobleaching of the compounds follows a first-order rate and is proportional to the energy of the incident laser light. In general, it was also observed that the photobleaching rate increases with the amount of water present in the solution. Bennett reported the photoconversion of Foscan® (m-THPC) and of the analogous bacteriochlorin (m-THPB) in PBS:methanol (50:50). Scherz reported the photoconversion of Tookad® in acetone and Triton-X:PBS [3]. For the purpose of comparing the photostability of Luzitins with that of Foscan® and Tookad®, we present in Table 2 the half-lives (t1/2) of representative drugs described herein, together with those of Foscan and Tookad® normalized for a laser power of 100 mW.
Luzitin-FMet was dissolved in PBS:methanol (2:3), transferred to a 1 cm quartz cell and its absorption spectrum was registered, FIG. 6. The quartz cell was then placed in the beam of the 748 nm Lynx diode laser, previously unfocused to have a beam diameter coincident with the window of the quartz cell. The laser power measured under these conditions was 28.8 mW. Every 5 minutes the irradiation was interrupted and a new absorption spectrum was registered. This procedure was followed for 65 minutes. The photobleaching follows the kinetics of a first-order reaction in the time window of the experiment. […] Whereas the bacteriochlorin peak at 743 nm is reduced from an absorbance of 1.128 to 0.337, the absorption of the chlorin only increases from 0.114 to 0.151. Taking into consideration the molar absorption coefficients of the compounds at these wavelengths, it is clear that whereas 70% of the bacteriochlorin is destroyed during the irradiation, only a few percent of chlorin are formed.
The half-lives of other bacteriochlorins normalized 100 mW laser irradiation at 748 nm are presented in […], together with the literature data for the photodegradation of Foscan® and Tookad® normalized for the same light intensity. It was also observed that the half-live to Luzitin-Cl is increased by a factor of 30 when the PBS solution of the photosensitizer is saturated with Argon, which reduces the oxygen concentration in the solution.

[8] = corrected for the chlorin content

Structure (SMILES)	λmax [1] [nm]	εmax [1, 8]	τT (air) triplet lifetime [2] [nsec]	ΦF (fluorescence quantum yield) [3]	log KOW (n-octanol:water partition coefficient) [4]	cell kill ([5]; 10 μM, laser light dose 6 J/cm^2, incubation 18 hours) [%]	cell kill ([6]; 20 μM, laser light dose 6 J/cm^2, incubation 24 hours) [%]	concentration of sensitizer required to kill 90% of cells (LD90) [6] [µM]	t1/2 (photobleaching half-life) ([7]; PBS) [s]	enhancement of ε at 750 nm band, more polar atropisomer fraction (βα3+α4) [1] [%]	εmax of the more polar atropisomer fraction (βα3+α4) ([1]; at 748 nm (750 nm band), estimated)	εmax [1]	concentration of sensitizer required to kill 90% of cells (LD90) [5] [µM]	t1/2 (photobleaching half-life) ([7]; PBS:methanol)	bacteriochlorin destroyed during irradiation ([7]; PBS:methanol (2:3), 748 nm, 28.8 mW, 65 minutes) [%]	t1/2 (photobleaching half-life) ([7]; methanol)
O=S(=O)(O)c1ccc(Cl)c(-c2c3nc(c(-c4c(Cl)ccc(S(=O)(=O)O)c4Cl)c4ccc([nH]4)c(-c4c(Cl)ccc(S(=O)(=O)O)c4Cl)c4nc(c(-c5c(Cl)ccc(S(=O)(=O)O)c5Cl)c5ccc2[nH]5)CC4)CC3)c1Cl [Luzitin-Cl2, 5,10,15,20-tetrakis(2,6-dichloro-3-sulfonylphenyl)bacteriochlorin]	745.0	27,000^d) M^−1 cm^−1	226	0.0062	−1.75	100	100	20	358							
CCNS(=O)(=O)c1ccc(Cl)c(-c2c3nc(c(-c4c(Cl)ccc(S(=O)(=O)NCC)c4Cl)c4ccc([nH]4)c(-c4c(Cl)ccc(S(=O)(=O)NCC)c4Cl)c4nc(c(-c5c(Cl)ccc(S(=O)(=O)NCC)c5Cl)c5ccc2[nH]5)CC4)CC3)c1Cl [Luzitin-Cl2Et, 5,10,15,20-tetrakis(2,6-dichloro-3-N-ethylsulfamoylphenyl)bacteriochlorin]	745.5		265	0.0081	1.8			5		50	150,000 M^−1 cm^−1	96,000 M^−1 cm^−1	5	4,013 sec		
O=S(=O)(O)c1ccc(Cl)c(-c2c3nc(c(-c4cc(S(=O)(=O)O)ccc4Cl)c4ccc([nH]4)c(-c4cc(S(=O)(=O)O)ccc4Cl)c4nc(c(-c5cc(S(=O)(=O)O)ccc5Cl)c5ccc2[nH]5)CC4)CC3)c1 [Luzitin-Cl, 5,10,15,20-tetrakis(2-chloro-5-sulfonylphenyl)bacteriochlorin]	746.5	23,000^d) M^−1 cm^−1	240	0.0403	−1.70				174							
CNS(=O)(=O)c1ccc(F)c(-c2c3nc(c(-c4cc(S(=O)(=O)NC)ccc4F)c4ccc([nH]4)c(-c4cc(S(=O)(=O)NC)ccc4F)c4nc(c(-c5cc(S(=O)(=O)NC)ccc5F)c5ccc2[nH]5)CC4)CC3)c1 [Luzitin-FMet, 5,10,15,20-tetrakis(2-fluoro-5-N-methylsulfamoylphenyl)bacteriochlorin]	742.5	62,000^d) M^−1 cm^−1		0.0589	2.3			0.5					1.0	647 s	70	3,553 sec

— patent US9670217B2, “Process for preparing chlorins and their pharmaceutical uses” (UNIVERSIDADE DE COIMBRA, priority 2008, dated 2017)
